Assay [1] deals with human IgE. In words: SDS/PAGE Western immunoblot of human IgE binding, plasma from patient #417. Particulars: patient #417 plasma. On the procedure:
Western immunoblot analysis of the peptides produced in above was performed. The concentration of all protein samples (e.g., TRFP, recombinant chain 1 of TRFP, recombinant chain 2 of TRFP, peptide XYZ, peptide XZY, peptide YXZ, peptide YZX, peptide ZXY and peptide ZYX) for gel electrophoresis was determined by the BCA method (Pierce Co.). All protein samples were loaded on the gel at 5 μg/lane except TRFP at 10 μg/lane. Protein separation was carried out on a 15% acrylamide gel, and transfer was performed by electroblotting at 1.5 Amps for 1.5 hours onto nitrocellulose paper (Schleicher and Schuell, 0.1 microns) in a Hoeffer apparatus according to the protocol of Towbin, H., T. Stachlin, and J. Gordon, PNAS 76:4350 (1979). Proteins were rinsed in blot solution (25 mM Tris-HCl 7.5, 0.171 M NaCl and 0.5 ml/liter Tween 20). The blot was then blocked for one hour in blocking solution (1% milk in blot solution). Plasma from patient #417, used as a primary antibody source, was diluted in blocking solution to 10% and preabsorbed for 1.5 hours with unused nitrocellulose (2 cm×15 cm). The prepared human plasma was then incubated overnight on an orbital shaker with the protein blot section of interest. Following the first antibody incubation the blot section was washed three times, each wash involved a fifteen minute incubation in blot solution. The second antibody, specific for human IgE (biotinylated goat anti-human IgE, KPL Inc.), was diluted 1:2500 in blot solution and the incubation proceeded for two hours. Excess second antibody was subsequently removed by three 15 minute incubations with blot solution. ^125I Iodinated streptavidin (Amersham) was diluted 1:2500 in blot solution and incubated with blots for 1 hour, at 2 μCi in a 50 ml incubation volume. Blot sections were then washed with blot solution until the detectable radioactivity in the waste solution decreased to background levels. The blot section was then wrapped in saran wrap and exposed to film overnight with a cronex intensifying screen at −80° C.
In general terms: Immunoblotting shows a protein as a band on a membrane.

Assay [2] concerns human IgE. In words: ELISA of human IgE binding, plasma from patient #669. The conditions noted are these: patient #669 plasma. The procedure:
Corning assay plates (#25882-96) were coated with 10 μg/ml of each coating antigen (i.e., TRFP, chain 1 (recombinant chain 1 of TRFP), chain 2 (recombinant chain 2 of TRFP), peptide XYZ, peptide XZY, peptide YXZ, peptide YZX, peptide ZXY and peptide ZYX) listed in FIG. 34 at 50 μl/well and incubated overnight at 4° C. The coating antigens were removed and the wells were blocked with 0.5% gelatin in PBS, 200 μl/well for 2 hours at room temperature. Plasma from patient #669 was serially diluted with PBS-Tween 20 (PBS with 0.05% nonionic detergent Tween-20 Sigma, St. Louis Mo.) and 100 μl/well was added and incubated overnight at 4° C. (plasma dilutions are tested in duplicate). The second antibody (biotinylated goat anti-Human IgE, 1:1000, Kirkegaard & Perry Laboratories Inc. Gaithersburg, Md.), was added at 100 μl/well for one hour at room temperature. This solution was removed and streptavidin-HRPO, 1:10,000 (Southern Biotechnology Associates, Inc., Birmingham, Ala.) was then added at 100 μl/well for one hour at room temperature (all wells were washed three times with PBS-Tween between each incubation step). TMB Membrane Peroxidase Substrate system (Kirkegaard & Perry Laboratories) was freshly mixed, and added at 100 μl/well. The color was allowed to develop for 2-5 minutes. The reaction was stopped by the addition of 100 μl/well of 1M phosphoric acid. Plates were read on a Microplate EL 310 Autoreader (Biotek Instruments, Winooski, Vt.) with a 450 nm filter. The absorbance levels of duplicate wells were averaged.

The test system of assay [3] is Human T cell lines from four cat allergic patients. The assay is described as follows: IL-2 and IL-4 production by TRFP-primed T cell lines of four cat allergic patients. The class given is cell-based. Particulars: panel of four patients 688, 730, 738, 807. The procedure:
Human T cell lines from four cat allergic patients (patients 688, 730, 738, and 807) were isolated. Heparinized peripheral blood specimens were obtained from cat allergic patients and the mononuclear cell fraction was purified by Ficoll-Hypaque centrifugation. An aliquot of these cells (2×10^6) was stimulated in vitro with purified native TRFP (10 μg/ml) and grown in the presence of recombinant IL-2 and IL-4. The T cell line was then rested in culture until ready for secondary proliferation assay. Two×10^4 cells were cultured in 200 μl medium containing various concentrations of test antigens with 5×10^4 γ-irradiated autologous Epstein-Barr Virus transformed cells as antigen presenting cells. After 3 days of culture, each microwell was pulsed overnight with 1 μCurie tritiated thymidine, and the amount of radioactivity incorporated was measured by liquid scintillation counting. The stimulation index (S.I.) for each antigen was then calculated. […] The IL-2 in the medium was measured by proliferation of the IL-2 dependent T cell line, […]. […] IL-4 was measured by an ELISA purchased from R&D Systems, Minneapolis, Minn. […] The stimulation indices for IL-2 and IL-4 production were calculated by dividing the amount of IL-2 or IL-4 contained in the medium from stimulated T cells divided by the amount of IL-2 or IL04 released by non-stimulated T cells.

For “recombinant chain 1: recombinant TRFP chain 1 expressed in E. coli”, the “IgE binding, Western immunoblot” value in assay [1] was “strong IgE binding”. Besides, the “IgE binding, ELISA” value in assay [2] is on record as “somewhat lower binding”.
Regarding “NARILKNCVDAKMTEEDKE [Fel 4, TRFP chain 1 amino acids 37-55]”, in assay [3], the “IL-4 versus IL-2 production” value is given as “induces more IL-4 than IL-2”.
For the substance “TRFP: human T cell reactive feline protein affinity purified from house dust; two covalently linked chains”, in assay [3], the “IL-4 versus IL-2 production” value is reported as “favors IL-4 as opposed to IL-2”. In assay [1], the “IgE binding, Western immunoblot” value is given as “reactivity”. Besides, the “IgE binding, ELISA” value in assay [2] is given as “high level of IgE binding”.

Values taken from patent publication US7482008B1, “Human T cell reactive feline protein (TRFP) isolated from house dust and uses therefor” (Merck Patent GmbH, priority 1989, dated 2009).
